One compound from PMC6161288, “Bioavailability of Eurycomanone in Its Pure Form and in a Standardised Eurycoma longifolia Water Extract” (Pharmaceutics, 2018) can be followed below.

Molecules are shown by their SMILES.

The nature of data set [1]: Plasma protein binding (rapid equilibrium dialysis), monkey. In kind it is in vitro ADME. As to conditions: pH 7.4, 37 °C, read-out: percentage bound to plasma protein (converted). How it is done: The ability of eurycomanone to bind plasma protein was analysed in five types of plasma (mice, rat, dog, monkey, and human). Each type of plasma was spiked with eurycomanone (1 mM) to make the 10 µM test concentration of eurycomanone in the plasma. Equilibrium dialysis buffer (500 µL) at pH 7.4 was added to the right chamber in rapid equilibrium dialysis (RED), while the spiked plasma (300 µL) was added to the left chamber. The Teflon base plate was covered with aluminium foil and left on the shaking incubator at 37 °C for 4 h. The matrix was balanced by mixing 100 µL of the equilibrium buffer with the spiked plasma from the left chamber in RED before adding the stop solution (350 µL) to precipitate out the protein. The supernatant (10,000 rpm, 10 min, 4 °C) was collected and analysed using LC-MS/MS. The standards (propranolol, warfarin, and acebutalol) were analysed in duplicates.

Data set [2] in a line: Lipophilicity, shake flask method with octanol and buffer (pH 7.4). In kind it is physicochemical. As to conditions: pH 7.4, octanol/buffer shake flask; read-out: distribution coefficient log D. On the procedure: The lipophilicity of eurycomanone was estimated using the shake flask method with octanol and buffer (pH 7.4). Eurycomanone (5 µL) at 5 mM concentration is added to octanol (495 µL) and DMSO (495 µL) and also into the aqueous and octanol phase in a 1:1 ratio ([…] of octanol phase and 247.5 µL of aqueous phase). The octanol and aqueous phases were prepared using a saturation process, where equal amounts of D-PBS (pH 7.4) and octanol were saturated (300 rpm, room temperature) for 24 h before being separated and kept at room temperature. The prepared mixtures were vortexed and kept on the shaker (300 rpm) at room temperature for 16 h. The mixtures were allowed to stand for 30 min, and 200 µL of solution was transferred and sent for HPLC analysis.

A short description of data set [3]: Parallel artificial membrane permeability assay (PAMPA). Type of data set: in vitro ADME. As to conditions: pH 7.4, 18 h, room temperature, read-out: permeation through artificial membrane (PAMPA). On the procedure: Eurycomanone was added to Pion buffer (Pion Inc., Billerica, MA, USA) pH 7.4 to make a 10 µM working solution. Five microlitres of the lipid mix was applied on the membrane and allowed to dry for 10 min. The working solution (200 µL) was added to the donor plate and Pion buffer (200 µL) were added to the receiver plate. The plate was kept in a moist chamber and left for 18 h at room temperature. The solution from both the donor and receiver plate and the working solution was analysed using LC-MS/MS. This test was carried out in triplicates using propranolol, atenolol, and carbamazepine as standards. The test concentration for eurycomanone is […].

Regarding `C=C1[C@@H](O)[C@]2(O)OC[C@]34[C@H]2[C@@]2(C)[C@H](O)C(=O)C=C(C)[C@@H]2C[C@H]3OC(=O)[C@H](O)[C@@]14O` [Eurycomanone], the fraction unbound at 4 h, 10 µM in data set [1] is 0.646. Moreover, the logD at 16 h in data set [2] was -0.35. The Papp at 18 h, 25 µM in data set [3] was 0.78 ×10⁻⁶ cm/s.
